Laboratory results published in patent US9422293B2 (priority 2006, dated 2016).
Structures can show the parent of a compound that is named as a salt.

biological target: rat TRPV1 (Rattus norvegicus (Rat), UniProt O35433); conditions: read-out: Rat IC50
Sequence (O35433 whole entry): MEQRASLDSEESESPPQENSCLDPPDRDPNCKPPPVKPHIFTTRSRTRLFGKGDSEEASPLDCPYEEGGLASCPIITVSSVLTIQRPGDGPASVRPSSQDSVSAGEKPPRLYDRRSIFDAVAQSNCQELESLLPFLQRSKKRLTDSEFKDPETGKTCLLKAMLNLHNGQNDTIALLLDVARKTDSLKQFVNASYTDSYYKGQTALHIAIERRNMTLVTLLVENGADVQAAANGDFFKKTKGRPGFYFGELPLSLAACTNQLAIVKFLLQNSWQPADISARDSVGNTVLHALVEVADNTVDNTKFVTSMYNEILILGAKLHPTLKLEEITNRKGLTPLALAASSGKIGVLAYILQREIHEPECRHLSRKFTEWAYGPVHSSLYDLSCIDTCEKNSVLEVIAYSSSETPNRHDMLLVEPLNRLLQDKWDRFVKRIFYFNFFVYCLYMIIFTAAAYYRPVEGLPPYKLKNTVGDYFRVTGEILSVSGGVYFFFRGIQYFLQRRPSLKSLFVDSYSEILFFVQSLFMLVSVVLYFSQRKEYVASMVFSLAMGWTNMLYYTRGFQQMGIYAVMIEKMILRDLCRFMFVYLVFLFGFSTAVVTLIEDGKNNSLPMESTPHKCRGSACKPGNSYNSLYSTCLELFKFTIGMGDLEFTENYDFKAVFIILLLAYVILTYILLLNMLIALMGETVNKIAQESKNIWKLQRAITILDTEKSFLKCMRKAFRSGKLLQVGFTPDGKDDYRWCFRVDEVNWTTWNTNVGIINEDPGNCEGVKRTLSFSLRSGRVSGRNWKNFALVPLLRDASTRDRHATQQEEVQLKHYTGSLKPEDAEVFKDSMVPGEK
Procedure: Biological Testing: Functional Assay: Block of Capsaicin-Induced Ca^2+ Influx A. Human Assay
Cells were passaged frequently, every 3-5 days, to avoid overgrowth, depletion of essential medium components, or acidic medium exposure. Cells were passaged using a brief wash in 0.05% trypsin with 1 mM EDTA, followed by dissociation in divalent-free phosphate-buffered saline (Hyclone #SH30028.02). […] The assay buffer was composed of 130 mM NaCl, 2 mM KCl, 2 mM MgCl2, 10 mM HEPES, 5 mM glucose, and either 2 mM or 20 μM CaCl2. On the day of the experiment, the culture medium was replaced with 2 mM calcium assay buffer using an automated plate washer (ELx405; Biotek, VT). […] After loading the cells, the dye solution was replaced with 50 μL/well of 20 μM calcium assay buffer using the ELx405 plate washer. Test compounds (50 μL/well) were added to the plate and incubated for 30 min. […] The IC50 values were determined. […] The contents of the wells were mixed 3 times (40 μL mix volume) immediately after the additions were made. Concentration dependence of block was determined by exposing each well of cells in duplicate rows of a 96 well plate to a serial dilution of test compound. The concentration series usually started at 10 μM with a three-fold serial decrement in concentration. The magnitude of the capsaicin response was determined by measuring the change in fluo3 fluorescence before and 100 seconds after the addition of the agonist. Data were analyzed using a non-linear regression program (Origin; OriginLab, MA). IC50 values shown are the average (mean) of the results obtained.
The assay was performed as described above, using HEK293 cells transfected with rat TRPV1 (rTRPV1/HEK293). […] IC50 values shown are the average (mean) of the results obtained.

Compound	IC50 [nM]
FC(F)(F)c1ccc(Nc2nc(N3CCCC3)nc3c2CCN(c2ncccc2C(F)(F)F)CC3)cc1 [Example 106, [2-Pyrrolidin-1-yl-7-(3-trifluoromethyl-pyridin-2-yl)-6,7,8,9-tetrahydro-5H-pyrimido[4,5-d]azepin-4-yl]-(4-trifluoromethyl-phenyl)-amine]	62
CC(C)c1nc2c(c(NCCc3ccc(Cl)c(Cl)c3)n1)CCN(c1ncccc1C(F)(F)F)CC2 [Example 108, [2-(3,4-Dichloro-phenyl)-ethyl]-[2-isopropyl-7-(3-trifluoromethyl-pyridin-2-yl)-6,7,8,9-tetrahydro-5H-pyrimido[4,5-d]azepin-4-yl]-amine]	940
CC(C)c1nc2c(c(Nc3ccc(Cl)c(Cl)c3)n1)CCN(c1ncccc1C(F)(F)F)CC2 [Example 109, (3,4-Dichloro-phenyl)-[2-isopropyl-7-(3-trifluoromethyl-pyridin-2-yl)-6,7,8,9-tetrahydro-5H-pyrimido[4,5-d]azepin-4-yl]-amine]	580
CC(C)c1nc2c(c(NCc3ccc(Cl)c(C(F)(F)F)c3)n1)CCN(c1ncccc1C(F)(F)F)CC2 [Example 115, N-{[4-Chloro-3-(trifluoromethyl)phenyl]methyl}-2-(1-methylethyl)-7-[3-(trifluoromethyl)pyridin-2-yl]-6,7,8,9-tetrahydro-5H-pyrimido[4,5-d]azepin-4-amine]	3790
CC(C)c1nc2c(c(NCc3ccc(C(F)(F)F)nc3)n1)CCN(c1ncccc1C(F)(F)F)CC2 [Example 116, 2-(1-Methylethyl)-7-[3-(trifluoromethyl)pyridin-2-yl]-N-{[6-(trifluoromethyl)pyridin-3-yl]methyl}-6,7,8,9-tetrahydro-5H-pyrimido[4,5-d]azepin-4-amine]	7030
CC(C)c1nc2c(c(NCc3ccc(C(F)(F)F)cc3)n1)CCN(c1ncccc1C(F)(F)F)CC2 [Example 117, 2-(1-Methylethyl)-N-{[4-(trifluoromethyl)phenyl]methyl}-7-[3-(trifluoromethyl)pyridin-2-yl]-6,7,8,9-tetrahydro-5H-pyrimido[4,5-d]azepin-4-amine]	13500
CC(C)c1nc2c(c(NCCc3ccccc3F)n1)CCN(c1ncccc1C(F)(F)F)CC2 [Example 118, N-[2-(2-Fluorophenyl)ethyl]-2-(1-methylethyl)-7-[3-(trifluoromethyl)pyridin-2-yl]-6,7,8,9-tetrahydro-5H-pyrimido[4,5-d]azepin-4-amine]	500
CC(C)c1nc2c(c(NCCc3ccccc3Br)n1)CCN(c1ncccc1C(F)(F)F)CC2 [Example 119, N-[2-(2-Bromophenyl)ethyl]-2-(1-methylethyl)-7-[3-(trifluoromethyl)pyridin-2-yl]-6,7,8,9-tetrahydro-5H-pyrimido[4,5-d]azepin-4-amine]	1220
CC(C)c1nc2c(c(NCc3c(Cl)cccc3Cl)n1)CCN(c1ncccc1C(F)(F)F)CC2 [Example 120, N-[(2,6-Dichlorophenyl)methyl]-2-(1-methylethyl)-7-[3-(trifluoromethyl)pyridin-2-yl]-6,7,8,9-tetrahydro-5H-pyrimido[4,5-d]azepin-4-amine]	12000
CC(C)c1nc2c(c(NC3CCC(C(C)(C)C)CC3)n1)CCN(c1ncccc1C(F)(F)F)CC2 (centres unmarked) [Example 122, N-[4-(1,1-Dimethylethyl)cyclohexyl]-2-(1-methylethyl)-7-[3-(trifluoromethyl)pyridin-2-yl]-6,7,8,9-tetrahydro-5H-pyrimido[4,5-d]azepin-4-amine]	190
CC(C)c1nc2c(c(NCCc3ccc(Cl)cc3)n1)CCN(c1ncccc1C(F)(F)F)CC2 [Example 124, N-[2-(4-Chlorophenyl)ethyl]-2-(1-methylethyl)-7-[3-(trifluoromethyl)pyridin-2-yl]-6,7,8,9-tetrahydro-5H-pyrimido[4,5-d]azepin-4-amine]	570
CC(C)c1nc2c(c(NCCc3c(Cl)cccc3Cl)n1)CCN(c1ncccc1C(F)(F)F)CC2 [Example 125, N-[2-(2,6-Dichlorophenyl)ethyl]-2-(1-methylethyl)-7-[3-(trifluoromethyl)pyridin-2-yl]-6,7,8,9-tetrahydro-5H-pyrimido[4,5-d]azepin-4-amine]	610
COc1ccccc1CCNc1nc(C(C)C)nc2c1CCN(c1ncccc1C(F)(F)F)CC2 [Example 126, 2-(1-Methylethyl)-N-{2-[2-(methyloxy)phenyl]ethyl}-7-[3-(trifluoromethyl)pyridin-2-yl]-6,7,8,9-tetrahydro-5H-pyrimido[4,5-d]azepin-4-amine]	1190
CC(C)c1nc2c(c(Nc3ccc(C(=O)N(C)C)cc3)n1)CCN(c1ncccc1C(F)(F)F)CC2 [Example 127, N,N-Dimethyl-4-({2-(1-methylethyl)-7-[3-(trifluoromethyl)pyridin-2-yl]-6,7,8,9-tetrahydro-5H-pyrimido[4,5-d]azepin-4-yl}amino)benzamide]	19200
CC(C)c1nc2c(c(Nc3ccc(C(F)(F)F)c(Cl)c3)n1)CCN(c1ncccc1C(F)(F)F)CC2 [Example 128, N-[3-Chloro-4-(trifluoromethyl)phenyl]-2-(1-methylethyl)-7-[3-(trifluoromethyl)pyridin-2-yl]-6,7,8,9-tetrahydro-5H-pyrimido[4,5-d]azepin-4-amine]	150
CC(C)c1nc2c(c(Nc3ccc(C(C)(C)C#N)cc3)n1)CCN(c1ncccc1C(F)(F)F)CC2 [Example 129, 2-Methyl-2-[4-({2-(1-methylethyl)-7-[3-(trifluoromethyl)pyridin-2-yl]-6,7,8,9-tetrahydro-5H-pyrimido[4,5-d]azepin-4-yl}amino)phenyl]propanenitrile]	230
CC(C)c1nc2c(c(Nc3ccc([N+](=O)[O-])cc3)n1)CCN(c1ncccc1C(F)(F)F)CC2 [Example 136, 2-(1-Methylethyl)-N-(4-nitrophenyl)-7-[3-(trifluoromethyl)pyridin-2-yl]-6,7,8,9-tetrahydro-5H-pyrimido[4,5-d]azepin-4-amine]	110
CC(C)c1ccc(Nc2nc(C(C)C)nc3c2CCN(c2ncccc2C(F)(F)F)CC3)cc1 [Example 137, 2-(1-Methylethyl)-N-[4-(1-methylethyl)phenyl]-7-[3-(trifluoromethyl)pyridin-2-yl]-6,7,8,9-tetrahydro-5H-pyrimido[4,5-d]azepin-4-amine]	60
CC(C)c1nc2c(c(Nc3ccc(C(F)(F)F)c(F)c3)n1)CCN(c1ncccc1C(F)(F)F)CC2 [Example 140, N-[3-Fluoro-4-(trifluoromethyl)phenyl]-2-(1-methylethyl)-7-[3-(trifluoromethyl)pyridin-2-yl]-6,7,8,9-tetrahydro-5H-pyrimido[4,5-d]azepin-4-amine]	190
CC(C)c1nc2c(c(Nc3ccc4c(c3)CCC4)n1)CCN(c1ncccc1C(F)(F)F)CC2 [Example 141, N-(2,3-Dihydro-1H-inden-5-yl)-2-(1-methylethyl)-7-[3-(trifluoromethyl)pyridin-2-yl]-6,7,8,9-tetrahydro-5H-pyrimido[4,5-d]azepin-4-amine hydrochloride salt]	130
CC(C)c1nc2c(c(Nc3ccc(-c4cnco4)cc3)n1)CCN(c1ncccc1C(F)(F)F)CC2 [Example 142, 2-(1-Methylethyl)-N-[4-(1,3-oxazol-5-yl)phenyl]-7-[3-(trifluoromethyl)pyridin-2-yl]-6,7,8,9-tetrahydro-5H-pyrimido[4,5-d]azepin-4-amine]	2090
CC(C)c1nc2c(c(Nc3ccc(C(C)(C)C)c([N+](=O)[O-])c3)n1)CCN(c1ncccc1C(F)(F)F)CC2 [Example 143, N-[4-(1,1-Dimethylethyl)-3-nitrophenyl]-2-(1-methylethyl)-7-[3-(trifluoromethyl)pyridin-2-yl]-6,7,8,9-tetrahydro-5H-pyrimido[4,5-d]azepin-4-amine]	130
FC(F)(F)c1ccc(Nc2nc(-c3ccco3)nc3c2CCN(c2ncccc2C(F)(F)F)CC3)cc1 [Example 144, 2-Furan-2-yl-N-[4-(trifluoromethyl)phenyl]-7-[3-(trifluoromethyl)pyridin-2-yl]-6,7,8,9-tetrahydro-5H-pyrimido[4,5-d]azepin-4-amine]	240
CC(C)(C)c1ccc(Nc2nc(-c3ccco3)nc3c2CCN(c2ncccc2C(F)(F)F)CC3)cc1 [Example 145, N-[4-(1,1-Dimethylethyl)phenyl]-2-furan-2-yl-7-[3-(trifluoromethyl)pyridin-2-yl]-6,7,8,9-tetrahydro-5H-pyrimido[4,5-d]azepin-4-amine]	240
FC(F)(F)c1ccc(Nc2nc(-c3ccoc3)nc3c2CCN(c2ncccc2C(F)(F)F)CC3)cc1 [Example 146, 2-Furan-3-yl-N-[4-(trifluoromethyl)phenyl]-7-[3-(trifluoromethyl)pyridin-2-yl]-6,7,8,9-tetrahydro-5H-pyrimido[4,5-d]azepin-4-amine]	720
CC(C)(C)c1ccc(Nc2nc(-c3ccoc3)nc3c2CCN(c2ncccc2C(F)(F)F)CC3)cc1 [Example 147, N-[4-(1,1-Dimethylethyl)phenyl]-2-furan-3-yl-7-[3-(trifluoromethyl)pyridin-2-yl]-6,7,8,9-tetrahydro-5H-pyrimido[4,5-d]azepin-4-amine]	110
CC(C)c1nc2c(c(Nc3ccc4nsnc4c3)n1)CCN(c1ncccc1C(F)(F)F)CC2 [Example 148, Benzo[1,2,5]thiadiazol-5-yl-[2-isopropyl-7-(3-trifluoromethyl-pyridin-yl)-6,7,8,9-tetrahydro-5H-pyrimido[4,5-d]azepin-4-yl]-amine]	2170
FC(F)(F)c1ccc(Nc2nc(-c3cccs3)nc3c2CCN(c2ncccc2C(F)(F)F)CC3)cc1 [Example 149, 2-(2-Thienyl)-N-[4-(trifluoromethyl)phenyl]-7-[3-(trifluoromethyl)pyridin-2-yl]-6,7,8,9-tetrahydro-5H-pyrimido[4,5-d]azepin-4-amine]	150
FC(F)(F)c1ccc(Nc2nc(-c3ccsc3)nc3c2CCN(c2ncccc2C(F)(F)F)CC3)cc1 [Example 150, 2-(3-Thienyl)-N-[4-(trifluoromethyl)phenyl]-7-[3-(trifluoromethyl)pyridin-2-yl]-6,7,8,9-tetrahydro-5H-pyrimido[4,5-d]azepin-4-amine]	200
